Values of other authors as cited in US20250205209A1, “Methods of Treating a Subject for Myalgic Encephalomyelitis/Chronic Fatigue Syndrome (ME/CFS) and Compositions for Use in The Same” (INCELLDX, INC., priority 2022, published 2025).

How the values were obtained:
[1] = HIV patients; >5 year follow-up of the MOTIVATE trials
R5-tropic HIV-1 = conditions: individuals with R5-tropic HIV-1; MOTIVATE 1 and MOTIVATE 2

## Cc1nnc(C(C)C)n1[C@@H]1C[C@H]2CC[C@@H](C1)N2CC[C@H](NC(=O)C1CCC(F)(F)CC1)c1ccccc1 [Maraviroc, 4,4-difluoro-N-[(1S)-3-[(1S,5R)-3-(3-methyl-5-propan-2-yl-1,2,4-triazol-4-yl)-8-azabicyclo[3.2.1]octan-8-yl]-1-phenylpropyl]cyclohexane-1-carboxamide]
[1]
  instances of death and other health threats such as hepatic failure and myocardial infarctions: limited instances of death and other health threats
R5-tropic HIV-1
  HIV viral loads: lower levels of HIV viral loads
